Measurements reported in patent US20250186403A1 (ARIZONA BOARD OF REGENTS ON BEHALF OF THE UNIVERSITY OF …, priority 2022, published 2025).

How the values were obtained:
[1] = 7-day toxicity study in mice; assay type: in vivo, BALB/c mice; design: key to Movement score (first line, r17) / Movement score (second line, r19): 0 = Normal; 1 = slight incoordination/decreased righting response; 2 = tiptoe walking or altered gait involving 1 limb; 3 = staggering or paralysis or tremors of 2 or more limbs; key to Coat condition score: 0 = normal/groomed; 1 = rough; 2 = ruffled/unkempt; key to Posture score: 0 = normal; 1 = slightly hunched; 2 = moderately hunched; 3 = severally hunched; settings: for Coat condition score / Death / Movement score (first line, r17) / Movement score (second line, r19) / Posture score / Seizure: individual mice
Method: FIGS. 4A, 4B, and 4C show in vitro and in vivo toxicity. […] A549 and RAW 264.7 cells were grown in 96 well plates till 70% confluent. RAW 264.7 cells were differentiated into macrophages using PMA. […] The cell viability was estimated by Cell Counting Kit-8 (GlpBio, CA, USA), and absorbance was read at 450 nm using microplate reader Synergy H1 (BioTek). CC50 was calculated by GraphPad prism. […] Abs: absorbance. […] Bodyweight and other parameters were monitored daily (Table 3).
The mice were observed twice daily for general health, movement, activity, and coat condition and scored. Food and water were ad libitum. On day 7, the mice were euthanized, and necropsy was done to see any changes in the organs as compared to the normal mice by visual observation.

Cne-H99 = assay: Efficacy in cryptococcal pulmonary infection mouse model; assay type: in vivo, Cryptococcus neoformans; BALB/c mice
Method: Blood samples were collected at 0, 0.5, 1, 2, 4, 8, 12, 16, 24, and 36 h after oral gavage. […] Other PK parameters are in Table 4. The values represent means±SD. […] On day 0, mice were infected with H99 (10^7 cells/mice) intranasally or mock-infected with PBS. Mice were euthanized on day 5, and lungs were dissected out, homogenized in RPMI-1640-MOPS media, and plated onto Sabouraud dextrose agar plates containing antibiotics. Plates were incubated at 30° C. for 72 h, and colonies were counted. […] VC: Vehicle control, (90% corn oil, 10% DMSO). Dpi: Days post-infection. CFU: Colony-forming units.
Efficacy studies in the mouse: The in vivo studies were done in a mouse model with the approval of IACUC, Wadsworth Center, Albany, NY. Male and female BALB/c mice 4-5-week-old were purchased from Jackson laboratory and quarantined for a week before shifting to the experimental room. The mice were grouped randomly with a male: female ratio 1:1, ears were punched as identification code. The formulation of the compound was done by dissolving the CMN in absolute DMSO and diluted in corn oil. The formulations were done daily, just before the dosing. […] Following this, the mice were anesthetized and infected with Cne-H99 cells ([…] in 30 μl PBS/mouse) intranasally. […] Mice were weighed every day, and visual observations were made for activity, movement, coat condition, etc. Food and water were ad libitum. On day 5, the mice were anesthetized and euthanized. Lung tissues were dissected out, weighed, and homogenized in 1 ml RPMI-MOPS media using a glass homogenizer. After log dilution of the tissue suspension in RPMI-MOPS, 100 μl from each dilution was plated onto SD agar plates with antibiotics (20 μg/ml penicillin, 40 μg/ml streptomycin, […], 25 μg/ml chloramphenicol). The plates were incubated at 30° C. for 3 days before counting the colonies. The counts were normalized with the weight of the lung tissue taken during the necropsy. The fungal load in the groups was compared with Student's t-test, and p<0.05 was considered as significant.

Cne-WT = assay: Fungistatic/fungicidal assay (MFC); assay type: cell-based, Cryptococcus neoformans
Method: The assay was performed by microdilution method as explained in materials and method. […] Cells in the wells were mixed by pipetting, and 30 μl of the culture taken from each well was plated onto SD agar plates. […] The MFC is the minimum drug concentration where there are no colonies. If the ratio of MFC/MIC≤4 is considered fungicidal.
Freshly grown Cne-WT colony on SD agar plate was resuspended in sterile water to give an OD600 of 0.1. This fungal suspension was further diluted at 1:500 in RPMI-MOPS media. A volume of 100 μl of the final cell suspension was added to each well in the assay plates. Additionally, 100 μl of final cell suspension was plated onto the SD agar plate to examine the actual cell count; and colonies were counted after 3 days. The assay plates were incubated at 30° C. for 48 h in a humidified incubator. The culture wells were mixed with micropipette tips, and 20 μl of the culture along with 70 μl RPMI-MOPS was plated onto the SD agar plates (100 mm) and incubated at 30° C. for 72 h before counting the colonies. […] The ratio of MFC/MIC≤4 was considered fungicidal and >4 as fungistatic.

A. fumigatus = assay: MIC by microdilution method (resazurin); assay type: cell-based; settings: Aspergillus fumigatus
Method: Serial double dilution of the CMN was done in the RPMI-MOPS medium. Freshly grown fungal culture from the SD agar plate was resuspended in sterile water and diluted to get 0.1 OD at 600 nm. […] The plates were incubated at 30° C. for 48 h. Plates were checked for growth by visual observation. For Afu, resazurin was added to 44 µM and incubated for 12 h at 37° C. before noting a change in color from blue to pink by live cells. MIC is defined as the minimum concentration at which there is no growth when observed visually.

[2] = CMN 5 mg/kg BW oral daily 7 days
[3] = CMN 10 mg/kg BW oral daily 7 days
[4] = CMN 20 mg/kg BW oral daily 7 days
[5] = CMN 40 mg/kg BW oral daily 7 days

Q: For `CNc1ccc2oc(C[C@H]3O[C@@]4(CC[C@H]3C)O[C@H]([C@H](C)C(=O)c3ccc[nH]3)[C@H](C)C[C@H]4C)nc2c1C(=O)O` [CMN, calcimycin], which other morbidity ([1]; 40 mg/ml daily oral gavage, 7 days) is on record?
A: no other morbidity was observed

Q: And the “loss of body weight” value ([1]; 40 mg/ml daily oral gavage, by day 7)?
A: 8%

Q: And the activity of mice ([1]; 40 mg/ml, for 1-2 h post-dosing)?
A: slower

Q: What about the Coat condition score [1, 2] of the same compound?
A: 0

Q: And the Death [1, 2]?
A: 0

Q: And the “Movement score (first line, r17)” value [1, 2]?
A: 0

Q: And the “Movement score (second line, r19)” value [1, 2]?
A: 0

Q: What about the Posture score [1, 2] of the same compound?
A: 0

Q: What about the Seizure [1, 2] of the same compound?
A: 0

Q: And the Coat condition score [1, 3]?
A: 0

Q: What about the Death [1, 3] of the same compound?
A: 0

Q: And the “Movement score (first line, r17)” value [1, 3]?
A: 0

Q: What about the “Movement score (second line, r19)” value [1, 3] of the same compound?
A: 0

Q: And the Posture score [1, 3]?
A: 0

Q: And the Seizure [1, 3]?
A: 0

Q: And the Coat condition score [1, 4]?
A: 0

Q: And the Death [1, 4]?
A: 0

Q: And the “Movement score (first line, r17)” value [1, 4]?
A: 0

Q: What about the “Movement score (second line, r19)” value [1, 4] of the same compound?
A: 0

Q: What about the Posture score [1, 4] of the same compound?
A: 0

Q: What about the Seizure [1, 4] of the same compound?
A: 0

Q: What about the Coat condition score [1, 5] of the same compound?
A: 0

Q: What about the Death [1, 5] of the same compound?
A: 0

Q: And the “Movement score (first line, r17)” value [1, 5]?
A: 1

Q: And the “Movement score (second line, r19)” value [1, 5]?
A: 0

Q: And the Posture score [1, 5]?
A: 0

Q: And the Seizure [1, 5]?
A: 0

Q: What about the “change in activity, appearance of fur, weight loss” value ([1]; daily oral gavage at 5, 10, 20 mg/ml, 7 days) of the same compound?
A: no significant change

Q: What about the “reduction in fungal burden vs vehicle control” value (Cne-H99; CMN 20 mg/Kg BW orally once daily for 5 days, day 5) of the same compound?
A: 3 fold

Q: What about the “fungal burden in the lungs” value (Cne-H99; CMN 20 mg/Kg BW orally once daily for 5 days, day 5, vehicle 1.8×10^8) of the same compound?
A: 6.3×10^7 CFU/g lung tissue

Q: What about the “reduction in lung-fungal load” value (Cne-H99; CMN 20 mg/kg body weight) of the same compound?
A: 60%

Q: And the “nature of inhibition (fungistatic/fungicidal)” value (Cne-WT)?
A: fungistatic (>4 as fungistatic)

Q: What about the MFC (Cne-WT; Cryptococcus neoformans, 48 h culture, plated, colonies day 3, read-out: MFC (minimum fungicidal concentration)) of the same compound?
A: > 26 µg/mL

Q: And the MIC (A. fumigatus)?
A: > 50 µM
